The values that follow come from US9586950B2 (MERCK SHARP & DOHME CORP., priority 2012, dated 2017).

pIC50, pKi: −log10 of the molar value.

Assay [1] addresses T1, human orexin-2 receptor (Homo sapiens (Human), UniProt O43614). Nature of the assay: radioligand binding assay, hOX2R BIND. The settings on record: membranes from CHO cells expressing OX2 receptor; read-out: hOX2R BIND hKi. On the procedure: (§1) In a typical experiment the OX1 and OX2 receptor antagonistic activity of the compounds of the present invention was determined in accordance with the following experimental method. For intracellular calcium measurements, Chinese hamster ovary (CHO) cells expressing the rat orexin-1 receptor or the human orexin-2 receptor, are grown in Iscove's modified DMEM containing 2 mM L-glutamine, […], 1% hypoxanthine-thymidine supplement, 100 U/ml penicillin, 100 μg/ml streptomycin and 10% heat-inactivated fetal calf serum (FCS). The cells are seeded at 20,000 cells/well into Becton-Dickinson black 384-well clear bottom sterile plates coated with poly-D-lysine. All reagents were from GIBCO-Invitrogen Corp. The seeded plates are incubated overnight at 37° C. and 5% CO2. Ala-6,12 human orexin-A as the agonist is prepared as a 1 mM stock solution in 1% bovine serum albumin (BSA) and diluted in assay buffer (HBSS containing 20 mM HEPES, 0.1% BSA and 2.5 mM probenecid, pH7.4) for use in the assay at a final concentration of 70 pM. Test compounds are prepared as 10 mM stock solution in DMSO, then diluted in 384-well plates, first in DMSO, then assay buffer. On the day of the assay, cells are washed 3 times with 100 μl assay buffer and then incubated for 60 min (37° C., 5% CO2) in 60 μl assay buffer containing 1 μM Fluo-4AM ester, 0.02% pluronic acid, and 1% BSA. The dye loading solution is then aspirated and cells are washed 3 times with 100 μl assay buffer. 30 μl of that same buffer is left in each well. Within the Fluorescent Imaging Plate Reader (FLIPR, Molecular Devices), test compounds are added to the plate in a volume of 25 μl, incubated for 5 min and finally 25 μl of agonist is added. Fluorescence is measured for each well at 1 second intervals for 5 minutes and the height of each fluorescence peak is compared to the height of the fluorescence peak induced by 70 pM Ala-6,12 orexin-A with buffer in place of antagonist. […] Alternatively, compound potency can be assessed by a radioligand binding assay (described in Bergman et. al. Bioorg. Med. Chem. Lett. 2008, 18, 1425-1430) in which the inhibition constant (Ki) is determined in membranes prepared from CHO cells expressing either the OX1 or OX2 receptor. The intrinsic orexin receptor antagonist activity of a compound which may be used in the present invention may be determined by these assays.

Assay [2] addresses T1, human orexin-2 receptor. Nature of the assay: FLIPR Ca2+ Flux Assay, hOX2R FLIPR. The conditions noted are these: CHO cells, 70 pM Ala-6,12 human orexin-A agonist. Type of assay: cell-based. The method, then:
as §1
A general note: Calcium assays in cells follow changes in intracellular calcium, usually with a dye or a luminescent sensor.

The target in assay [3] is hOX1R (orexin-1 receptor) (Rattus norvegicus, UniProt P56718). Nature of the assay: FLIPR Ca2+ Flux Assay, hOX1R FLIPR. It counts as cell-based. The conditions noted are these: CHO cells, 70 pM Ala-6,12 human orexin-A agonist. The method, then:
as §1

T1 sequence (O43614 whole entry): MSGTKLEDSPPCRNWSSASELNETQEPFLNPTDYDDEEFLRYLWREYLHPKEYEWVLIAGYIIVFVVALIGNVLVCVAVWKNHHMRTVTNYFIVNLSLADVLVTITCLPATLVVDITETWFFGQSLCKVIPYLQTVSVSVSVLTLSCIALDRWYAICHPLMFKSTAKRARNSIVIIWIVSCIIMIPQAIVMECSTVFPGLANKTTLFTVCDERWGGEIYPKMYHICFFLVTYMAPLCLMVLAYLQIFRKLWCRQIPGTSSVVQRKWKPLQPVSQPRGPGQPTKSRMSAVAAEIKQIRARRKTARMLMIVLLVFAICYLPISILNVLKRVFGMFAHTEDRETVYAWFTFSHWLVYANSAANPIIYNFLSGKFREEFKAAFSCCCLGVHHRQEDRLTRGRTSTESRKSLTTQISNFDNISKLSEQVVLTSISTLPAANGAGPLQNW

Take `COC(=O)c1c(C#N)ccnc1O[C@@H]1CC[C@@H](C)N(C(=O)c2ccccc2-n2nccn2)C1` [Example 1, Methyl 4-cyano-2-{[(3R,6R)-6-methyl-1-{[2-(2H-1,2,3-triazol-2-yl)phenyl]carbonyl}piperidin-3-yl]oxy}pyridine-3-carboxylate]: the pKi in assay [1] is 9.34. Besides, the pIC50 (commonly −log10 of the IC50, conventionally taken in molar units) in assay [2] is 7.72; in assay [3] it was 6.13.

As for `COC(=O)c1c(C#N)ccnc1O[C@@H]1CC[C@@H](C)N(C(=O)c2ccccc2-c2nc(C)no2)C1` [Example 2, Methyl 4-cyano-2-{[(3R,6R)-6-methyl-1-{[2-(3-methyl-1,2,4-oxadiazol-5-yl)phenyl]carbonyl}piperidin-3-yl]oxy}pyridine-3-carboxylate], the pKi in assay [1] was 9.43. The figures for the pIC50 in assay [2] and in assay [3] were 7.68 and 6.23, respectively.

Take `COC(=O)c1c(C#N)ccnc1O[C@@H]1CC[C@@H](C)N(C(=O)c2ccc(OC)nc2-n2nccn2)C1` [Example 3, methyl 4-cyano-2-{[(3R,6R)-1-{[6-methoxy-2-(2H-1,2,3-triazol-2-yl)pyridin-3-yl]carbonyl}-6-methylpiperidin-3-yl]oxy}pyridine-3-carboxylate]: the pKi in assay [1] is 8.72. Also, the pIC50 in assay [2] was 7.47.

`COC(=O)c1c(C#N)ccnc1O[C@@H]1CC[C@@H](C)N(C(=O)c2cccc(F)c2-n2nccn2)C1` [Example 4, methyl 4-cyano-2-{[(3R,6R)-1-{[3-fluoro-2-(2H-1,2,3-triazol-2-yl)phenyl]carbonyl}-6-methylpiperidin-3-yl]oxy}pyridine-3-carboxylate]: the pKi in assay [1] was 9.36. The pIC50 in assay [2] was 7.80; in assay [3] it was 5.99.

Turning to `COC(=O)c1c(C#N)ccnc1O[C@@H]1CC[C@@H](C)N(C(=O)c2ccc(F)cc2-n2nccn2)C1` [Example 5, methyl 4-cyano-2-{[(3R,6R)-1-{[4-fluoro-2-(2H-1,2,3-triazol-2-yl)phenyl]carbonyl}-6-methylpiperidin-3-yl]oxy}pyridine-3-carboxylate], the pKi in assay [1] was 9.18. For the same compound, the pIC50 is 7.66 in assay [2] and 6.00 in assay [3].

Turning to `COC(=O)c1c(C#N)ccnc1O[C@@H]1CC[C@@H](C)N(C(=O)c2cc(F)ccc2-n2nccn2)C1` [Example 6, methyl 4-cyano-2-{[(3R,6R)-1-{[5-fluoro-2-(2H-1,2,3-triazol-2-yl)phenyl]carbonyl}-6-methylpiperidin-3-yl]oxy}pyridine-3-carboxylate], the pKi in assay [1] is 9.38. Also, the pIC50 in assay [2] is 7.74; in assay [3], 6.01.

As for `COC(=O)c1c(C#N)ccnc1O[C@@H]1CC[C@@H](C)N(C(=O)c2c(F)cccc2-n2nccn2)C1` [Example 7, methyl 4-cyano-2-{[(3R,6R)-1-{[2-fluoro-6-(2H-1,2,3-triazol-2-yl)phenyl]carbonyl}-6-methylpiperidin-3-yl]oxy}pyridine-3-carboxylate], the pKi in assay [1] was 9.48. Also, the pIC50 in assay [2] is 7.62; in assay [3] it was 6.36.

For the compound `COC(=O)c1c(C#N)ccnc1O[C@@H]1CC[C@@H](C)N(C(=O)c2cc(F)ccc2-c2nc(C)no2)C1` [Example 8, methyl 4-cyano-2-{[(3R,6R)-1-{[5-fluoro-2-(3-methyl-1,2,4-oxadiazol-5-yl)phenyl]carbonyl}-6-methylpiperidin-3-yl]oxy}pyridine-3-carboxylate], the pKi in assay [1] was 9.36. The pIC50 in assay [2] was 7.60; in assay [3] it was 5.83.

As for `COC(=O)c1c(C#N)ccnc1O[C@@H]1CC[C@@H](C)N(C(=O)c2c(F)cccc2-c2nc(C)no2)C1` [Example 9, methyl 4-cyano-2-{[(3R,6R)-1-{[2-fluoro-6-(3-methyl-1,2,4-oxadiazol-5-yl)phenyl]carbonyl}-6-methylpiperidin-3-yl]oxy}pyridine-3-carboxylate], in assay [1], the pKi is 8.96. The same compound had a pIC50 in assay [2] of 7.41.

As for `COC(=O)c1c(C#N)ccnc1O[C@@H]1CC[C@@H](C)N(C(=O)c2ccccc2-c2noc(C)n2)C1` [Example 10, methyl 4-cyano-2-{[(3R,6R)-6-methyl-1-{[2-(5-methyl-1,2,4-oxadiazol-3-yl)phenyl]carbonyl}piperidin-3-yl]oxy}pyridine-3-carboxylate], the pKi in assay [1] is 9.28. In addition, the pIC50 in assay [2] was 8.19; in assay [3], 6.16.

Turning to `COC(=O)c1c(C#N)ccnc1O[C@@H]1CC[C@@H](C)N(C(=O)c2cccc(F)c2-c2noc(C)n2)C1` [Example 11, methyl 4-cyano-2-{[(3R,6R)-1-{[3-fluoro-2-(5-methyl-1,2,4-oxadiazol-3-yl)phenyl]carbonyl}-6-methylpiperidin-3-yl]oxy}pyridine-3-carboxylate], the pKi in assay [1] is 9.30. In addition, the pIC50 in assay [2] was 7.79; in assay [3] it was 6.02.

For the compound `COC(=O)c1c(C#N)ccnc1O[C@@H]1CC[C@@H](C)N(C(=O)c2ccc(F)cc2-c2noc(C)n2)C1` [Example 12, methyl 4-cyano-2-{[(3R,6R)-1-{[4-fluoro-2-(5-methyl-1,2,4-oxadiazol-3-yl)phenyl]carbonyl}-6-methylpiperidin-3-yl]oxy}pyridine-3-carboxylate], in assay [1], the pKi was 8.92. For the same compound, the pIC50 in assay [2] was 7.52.

Turning to `COC(=O)c1c(C#N)ccnc1O[C@@H]1CC[C@@H](C)N(C(=O)c2cc(F)ccc2-c2noc(C)n2)C1` [Example 13, methyl 4-cyano-2-{[(3R,6R)-1-{[5-fluoro-2-(5-methyl-1,2,4-oxadiazol-3-yl)phenyl]carbonyl}-6-methylpiperidin-3-yl]oxy}pyridine-3-carboxylate], the pKi in assay [1] was 9.30. The results for the pIC50 in assay [2] and in assay [3] were 7.77 and 5.99, respectively.

For `COC(=O)c1c(C#N)ccnc1O[C@@H]1CC[C@@H](C)N(C(=O)c2c(F)cccc2-c2noc(C)n2)C1` [Example 14, methyl 4-cyano-2-{[(3R,6R)-1-{[2-fluoro-6-(5-methyl-1,2,4-oxadiazol-3-yl)phenyl]carbonyl}-6-methylpiperidin-3-yl]oxy}pyridine-3-carboxylate], in assay [1], the pKi was 9.00. Also, the negative-log IC50 (pIC50) in assay [2] is 7.84.

Regarding `COC(=O)c1c(C#N)ccnc1O[C@@H]1CC[C@@H](C)N(C(=O)c2ccc(F)cc2-c2nc(C)no2)C1` [Example 15, methyl 4-cyano-2-{[(3R,6R)-1-{[4-fluoro-2-(3-methyl-1,2,4-oxadiazol-5-yl)phenyl]carbonyl}-6-methylpiperidin-3-yl]oxy}pyridine-3-carboxylate], the pKi in assay [1] is 8.66. In addition, the pIC50 in assay [2] is 7.50; in assay [3], 5.51.

For `COC(=O)c1c(C#N)ccnc1O[C@@H]1CC[C@@H](C)N(C(=O)c2cccc(C)c2-n2nccn2)C1` [Example 16, methyl 4-cyano-2-{[(3R,6R)-6-methyl-1-{[3-methyl-2-(2H-1,2,3-triazol-2-yl)phenyl]carbonyl}piperidin-3-yl]oxy}pyridine-3-carboxylate], the pKi in assay [1] is 9.28. For the same compound, the pIC50 in assay [2] was 7.56.

With `COC(=O)c1c(C#N)ccnc1O[C@@H]1CC[C@@H](C)N(C(=O)c2ccc(C)cc2-n2nccn2)C1` [Example 17, methyl 4-cyano-2-{[(3R,6R)-6-methyl-1-{[4-methyl-2-(2H-1,2,3-triazol-2-yl)phenyl]carbonyl}piperidin-3-yl]oxy}pyridine-3-carboxylate], the pKi in assay [1] was 9.24. This compound also showed a pIC50 in assay [2] of 7.61.

With `COC(=O)c1c(C#N)ccnc1O[C@@H]1CC[C@@H](C)N(C(=O)c2cccc(F)c2-c2ncccn2)C1` [Example 21, methyl 4-cyano-2-({(3R,6R)-1-[(3-fluoro-2-pyrimidin-2-ylphenyl)carbonyl]-6-methylpiperidin-3-yl}oxy)pyridine-3-carboxylate], the pKi in assay [1] is 8.92. The same compound had a negative logarithm of the IC50 (pIC50) in assay [2] of 7.44.

In the case of `COC(=O)c1c(C#N)ccnc1O[C@@H]1CC[C@@H](C)N(C(=O)c2c(F)cccc2-c2ncccn2)C1` [Example 24, methyl 4-cyano-2-({(3R,6R)-1-[(2-fluoro-6-pyrimidin-2-ylphenyl)carbonyl]-6-methylpiperidin-3-yl}oxy)pyridine-3-carboxylate], the pKi in assay [1] was 9.38. The compound further had a pIC50 in assay [2] of 7.48.

Regarding `COC(=O)c1c(C#N)ccnc1O[C@@H]1CC[C@@H](C)N(C(=O)c2ccccc2C2CCC2)C1` [Example 26, Methyl 4-cyano-2-(((3R,6R)-1-(2-cyclobutylbenzoyl)-6-methylpiperidin-3-yl)oxy)nicotinate], the pKi in assay [1] is 9.59. The compound further showed a pIC50 in assay [2] of 7.71.
